According to patent US20220162610A1, “NOVEL RNA TRANSCRIPT” (PTC Therapeutics, Inc., priority 2020, published 2022):

Legend:
[1] = tested on: human HTT intron 49 minigene; assay: Human HTT intron 49 minigene splicing in transfected HEK293 cells (endpoint PCR); assay type: cell-based; conditions: 10 nM, 100 nM, 1 μM, 24 h
Experimental: To identify potential sequence elements, human, mouse, and hybrid mouse/human HTT intron 49 minigene constructs were generated (FIG. 7A,7Bi-xii, 7Di-viii and 7Ei-vi). HEK293 cells transfected with the minigene constructs were treated with varying concentrations of test compounds in a final concentration 0.05% DMSO and incubated for 24 hours. Total RNA was isolated from the cells using the RNeasy plus mini kit (Qiagen) and RNA concentration and quality were assessed using a NanoDrop spectrophotometer (Thermo Fisher Scientific). cDNA was synthesized using an iScript™ cDNA synthesis kit (Bio-rad Laboratories) according to the manufacturer's instructions. Endpoint PCRs were set up using Platinum™ PCR SuperMix High Fidelity (Invitrogen) and the resulting PCR products separated on 2% eGels (Invitrogen). Primers were directed against common sequences in the minigene constructs: […]

[2] = tested on: SH-SY5Y cells; assay: RNA-seq analysis of transcriptome and splicing changes in SH-SY5Y cells; assay type: cell-based, human; conditions: for splicing events altered: 24 h
Experimental: SHY5Y cells were seeded in 6-well plates at 6×10^5 cells/well in 2 mL 10% FBS, DMEM and incubated for 4 hours. Cells were then treated with two biological replicates of HTT-C1 at 24 nM or 100 nM (in 0.1% DMSO), or four biological replicates of vehicle control (DMSO) for 24 hours (37° C., 5% CO2, 100% relative humidity). HEK293 cells transfected with U1 snRNA minigene constructs treated with either duplicates of 1 μM HTT-C1 or 0.5% DMSO control and incubated for 48 hours (37° C., 5% CO2, 100% relative humidity).
For library preparation and sequencing, mRNA was enriched from about 3 μg of total RNA using oligo(dT) beads (ThermoFisher Scientific). The mRNA was fragmented randomly using fragmentation buffer followed by cDNA synthesis using the mRNA template and random hexamers primer. Second-strand synthesis buffer (Illumina), deoxynucleotides, ribonuclease H and DNA polymerase I were added to initiate second-strand synthesis. After a series of terminal repair, A-ligation and sequencing adaptor ligation, the double-stranded cDNA library was size selected and enriched by PCR. RNA libraries were sequenced in a HiSeq sequencer (Illumina).
RNA sequencing reads were mapped to human genome (hg19) using Spliced Transcripts Alignment to a Reference (STAR) software (version 2.5) (Dobin et L., (2013) Bioinformatics 1; 29(1):15-21). Uniquely mapped reads (with MAPQ>10) having <5 nt/100 nt mismatches were used for analysis.
For gene expression analysis, the number of reads in a coding sequence (CDS) region of protein-coding genes and exonic regions of non-coding genes were counted and analyzed using DESeq2 (Love et al., (2014) Genome Biology, 15:550). For splicing analysis, reads were counted for different exons or exonic regions. For each exon, a Percent-Spliced-In (PSI) value was calculated using the percent of average read number supporting the inclusion of the exon (include both the upstream and downstream junctions) among all reads supporting either the inclusion or the exclusion of an exon. A minimal of 20 for the denominator of PSI calculation was required. Otherwise a “NA” value would be generated. PSI values for biological replicates were averaged and the PSI difference between two treatment groups was calculated. For statistical test, a 2×2 read counts table was made for each exon with rows for reads supporting inclusion or exclusion and columns for the two comparing sample groups (biological replicates were combined). Fisher's Exact Test was used for statistical test. PSI change of >20% (or <−20%) and P-value <0.001 was used to select exons being regulated by the treatment.

[3] = tested on: HTT mRNA; assay: RT-qPCR of HTT mRNA in HD patient B lymphocytes (GM04856); assay type: cell-based, human
Experimental: B lymphocytes (GM04856 cells) were plated in 6-well plates at 5×10^5 cells/well in 2 mL of 10% FBS, DMEM and incubated for 6 hours (37° C., 5% CO2, 100% relative humidity). Cells were then treated with HTT-C1 at 125 nM (in 0.5% DMSO) in triplicate for 24 hours. RNA was purified with the RNeasy Mini Kit (Qiagen) according to the manufacturer's protocol. Samples were prepared for RT-PCR (described previously) using 0.04 μL of each primer (at 100 μM). For reverse transcription and PCR, the following steps were performed: RT step: 48° C. (15 min); PCR steps: Step 1: 95° C. (10 min), Step 2: 95° C. (30 sec), Step 3: 55° C. (30 sec), Step 4: 68° C. (1 min); Steps 2 to 4 were repeated for 34 cycles, then held at 4° C. PCR products were separated on 2% agarose E-gels, stained with ethidium bromide and visualized using a UVP gel imager.
To test if the small molecule-induced spliced transcripts are unstable due to nonsense-mediated decay (NMD), GM04856 lymphoblast cells were treated with cycloheximide (CHX). First cells were treated with DMSO or 250 nM HTT-C1 for 18 h. DMSO or 10 uM CHX was then added, and cells harvested for RNAs after 2 h, 4 h, and 8 h.

| Structure (SMILES) | compound-induced splicing of minigene [1] | UP cassette exons with no annotation for at least one splice site ([2]; 24 nM) [%] | expression of HTT (RNA-seq) ([2]; 24 nM (~2x the IC50)) | splicing events altered ([2]; 24 nM) | UP cassette exons with no annotation for at least one splice site ([2]; 100 nM) [%] | splicing events altered ([2]; 100 nM) | pseudoexons activated ([2]; FIG. 6D comparison with U1-GA variant) | pseudoexons induced ([2]; at either concentration (24 nM or 100 nM)) | reduction in HTT mRNA (RT-qPCR) ([3]; 250 nM, GM04856 lymphoblast cells, 18 h plus 2-8 h) [%] | lowering of the amount of HTT mRNA as compared to the DMSO control ([3]; 24-hour treatment, 125 nM, B-lymphocytes from an HD patient) |
| --- | --- | --- | --- | --- | --- | --- | --- | --- | --- | --- |
| CC1(C)CC(Oc2ccc(-c3ccc(-c4cn[nH]c4)cc3O)nn2)CC(C)(C)N1 [HTT-C2] | responded in a dose dependent manner | 22 | selectively and potently downregulated expression of HTT | 165 | 44 | 215 | 27 | 31 | – | – |
| CC1(C)CC(Oc2ccc(-c3ccc(-c4ccnc(O)c4)cc3O)nn2)CC(C)(C)N1 [HTT-C1] | – | – | – | – | – | – | – | – | ~80 | about 85% |
